According to PubChem BioAssay (NCI):
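These data come from cells grown in 96-well plates and exposed to compound for 48 hours at five concentrations. Here, GI50 denotes the concentration required for 50% inhibition of growth. TGI denotes the concentration required for complete inhibition of growth.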

Columns and labels:
Experiment in all cases: inhibition of tumour cell growth, NCI panel, 48 h
IGROV1 ovarian = system: IGROV1 ovarian
SW-620 colon = system: SW-620 colon
K-562 leukemia = system: K-562 leukemia
MALME-3M melanoma = system: MALME-3M melanoma
OVCAR-5 ovarian = system: OVCAR-5 ovarian
NCI-H23 lung = system: NCI-H23 lung
HT29 colon = system: HT29 colon
UACC-257 melanoma = system: UACC-257 melanoma
OVCAR-4 ovarian = system: OVCAR-4 ovarian
SK-MEL-2 melanoma = system: SK-MEL-2 melanoma
DU-145 prostate = system: DU-145 prostate
RXF 393 renal = system: RXF 393 renal
MOLT-4 leukemia = system: MOLT-4 leukemia
COLO 205 colon = system: COLO 205 colon
CAKI-1 renal = system: CAKI-1 renal
PC-3 prostate = system: PC-3 prostate
HCC-2998 colon = system: HCC-2998 colon
UACC-62 melanoma = system: UACC-62 melanoma
786-0 renal = system: 786-0 renal
SNB-75 CNS = system: SNB-75 CNS
NCI-H522 lung = system: NCI-H522 lung
NCI-H460 lung = system: NCI-H460 lung
LOX IMVI melanoma = system: LOX IMVI melanoma
HOP-62 NSCLC = system: HOP-62 NSCLC
U251 CNS = system: U251 CNS
A549 NSCLC = system: A549 NSCLC
SN12C renal = system: SN12C renal
HL-60(TB) leukemia = system: HL-60(TB) leukemia
SF-268 CNS = system: SF-268 CNS
SR leukemia = system: SR leukemia
A498 renal = system: A498 renal
NCI/ADR-RES ovarian = system: NCI/ADR-RES ovarian
EKVX NSCLC = system: EKVX NSCLC
SK-MEL-5 melanoma = system: SK-MEL-5 melanoma
TK-10 renal = system: TK-10 renal
KM12 colon = system: KM12 colon
SK-MEL-28 melanoma = system: SK-MEL-28 melanoma
NCI-H226 lung = system: NCI-H226 lung
OVCAR-8 ovarian = system: OVCAR-8 ovarian
M14 melanoma = system: M14 melanoma
OVCAR-3 ovarian = system: OVCAR-3 ovarian
MCF7 breast = system: MCF7 breast
SF-539 CNS = system: SF-539 CNS
T-47D breast = system: T-47D breast
SF-295 CNS = system: SF-295 CNS
BT-549 breast = system: BT-549 breast
HOP-92 NSCLC = system: HOP-92 NSCLC
ACHN renal = system: ACHN renal
MDA-MB-435 = system: MDA-MB-435
HCT-15 colon = system: HCT-15 colon
CCRF-CEM leukemia = system: CCRF-CEM leukemia
SK-OV-3 ovarian = system: SK-OV-3 ovarian
RPMI-8226 leukemia = system: RPMI-8226 leukemia
HCT-116 colon = system: HCT-116 colon
MDA-MB-231 breast = system: MDA-MB-231 breast
UO-31 renal = system: UO-31 renal
HS 578T breast = system: HS 578T breast
SNB-19 CNS = system: SNB-19 CNS

`O=C(N/N=C/c1ccc([N+](=O)[O-])o1)c1[nH]c2ccc(Br)cc2c1-c1ccccc1` gave a GI50 (IGROV1 ovarian) of 340 nM, a TGI (IGROV1 ovarian) of 10900 nM and a GI50 (SW-620 colon) of 359 nM. The TGI (SW-620 colon) was 1970 nM, the GI50 (K-562 leukemia) was 118 nM and the TGI (K-562 leukemia) was > 100000 nM. For the same compound, the GI50 (MALME-3M melanoma) was 682 nM, the TGI (MALME-3M melanoma) was 3320 nM and the GI50 (OVCAR-5 ovarian) was 439 nM. For the same compound, the TGI (OVCAR-5 ovarian) was 14000 nM, the GI50 (NCI-H23 lung) was 393 nM and the TGI (NCI-H23 lung) was 4160 nM. The GI50 (HT29 colon) was 307 nM, the TGI (HT29 colon) was 1270 nM and the GI50 (UACC-257 melanoma) was 542 nM. The TGI (UACC-257 melanoma) was 4350 nM, the GI50 (OVCAR-4 ovarian) was 720 nM and the TGI (OVCAR-4 ovarian) was 10500 nM. It also gave a GI50 (SK-MEL-2 melanoma) of 335 nM, a TGI (SK-MEL-2 melanoma) of 1700 nM and a GI50 (DU-145 prostate) of 406 nM. It also gave a TGI (DU-145 prostate) of 12200 nM, a GI50 (RXF 393 renal) of 294 nM and a TGI (RXF 393 renal) of 1090 nM. It also gave a GI50 (MOLT-4 leukemia) of 356 nM, a TGI (MOLT-4 leukemia) of 10600 nM and a GI50 (COLO 205 colon) of 244 nM. The TGI (COLO 205 colon) was 577 nM, the GI50 (CAKI-1 renal) was 382 nM and the TGI (CAKI-1 renal) was 9370 nM. It also gave a GI50 (PC-3 prostate) of 400 nM, a TGI (PC-3 prostate) of 6390 nM and a GI50 (HCC-2998 colon) of 367 nM. For the same compound, the TGI (HCC-2998 colon) was 1600 nM, the GI50 (UACC-62 melanoma) was 150 nM and the TGI (UACC-62 melanoma) was 2070 nM. It also gave a GI50 (786-0 renal) of 367 nM, a TGI (786-0 renal) of 4750 nM and a GI50 (SNB-75 CNS) of 216 nM. For the same compound, the TGI (SNB-75 CNS) was 1550 nM, the GI50 (NCI-H522 lung) was 37.4 nM and the TGI (NCI-H522 lung) was 345 nM. It also gave a GI50 (NCI-H460 lung) of 331 nM, a TGI (NCI-H460 lung) of 1000 nM and a GI50 (LOX IMVI melanoma) of 190 nM. For the same compound, the TGI (LOX IMVI melanoma) was 1610 nM, the GI50 (HOP-62 NSCLC) was 541 nM and the TGI (HOP-62 NSCLC) was 5360 nM. It also gave a GI50 (U251 CNS) of 303 nM, a TGI (U251 CNS) of 1560 nM and a GI50 (A549 NSCLC) of 354 nM. It also gave a TGI (A549 NSCLC) of 11800 nM, a GI50 (SN12C renal) of 323 nM and a TGI (SN12C renal) of 1980 nM. It also gave a GI50 (HL-60(TB) leukemia) of 235 nM, a TGI (HL-60(TB) leukemia) of 626 nM and a GI50 (SF-268 CNS) of 564 nM. The TGI (SF-268 CNS) was 11000 nM, the GI50 (SR leukemia) was 143 nM and the TGI (SR leukemia) was 9090 nM. For the same compound, the GI50 (A498 renal) was 7450 nM, the TGI (A498 renal) was 24400 nM and the GI50 (NCI/ADR-RES ovarian) was 234 nM. The TGI (NCI/ADR-RES ovarian) was 2830 nM, the GI50 (EKVX NSCLC) was 1120 nM and the TGI (EKVX NSCLC) was 9140 nM. The GI50 (SK-MEL-5 melanoma) was 235 nM, the TGI (SK-MEL-5 melanoma) was 638 nM and the GI50 (TK-10 renal) was 1530 nM. The TGI (TK-10 renal) was 10100 nM, the GI50 (KM12 colon) was 410 nM and the TGI (KM12 colon) was 11600 nM. For the same compound, the GI50 (SK-MEL-28 melanoma) was 1170 nM, the TGI (SK-MEL-28 melanoma) was 7190 nM and the GI50 (NCI-H226 lung) was 306 nM. It also gave a TGI (NCI-H226 lung) of 1560 nM, a GI50 (OVCAR-8 ovarian) of 241 nM and a TGI (OVCAR-8 ovarian) of 677 nM. For the same compound, the GI50 (M14 melanoma) was 274 nM, the TGI (M14 melanoma) was 1160 nM and the GI50 (OVCAR-3 ovarian) was 433 nM. The TGI (OVCAR-3 ovarian) was 4090 nM, the GI50 (MCF7 breast) was 110 nM and the TGI (MCF7 breast) was 5530 nM. For the same compound, the GI50 (SF-539 CNS) was 177 nM, the TGI (SF-539 CNS) was 514 nM and the GI50 (T-47D breast) was 1790 nM. It also gave a TGI (T-47D breast) of 24000 nM, a GI50 (SF-295 CNS) of 189 nM and a TGI (SF-295 CNS) of 1230 nM. It also gave a GI50 (BT-549 breast) of 222 nM, a TGI (BT-549 breast) of 694 nM and a GI50 (HOP-92 NSCLC) of 733 nM. It also gave a TGI (HOP-92 NSCLC) of 4390 nM, a GI50 (ACHN renal) of 379 nM and a TGI (ACHN renal) of 6110 nM. For the same compound, the GI50 (MDA-MB-435) was 111 nM, the TGI (MDA-MB-435) was 293 nM and the GI50 (HCT-15 colon) was 230 nM. For the same compound, the TGI (HCT-15 colon) was 987 nM, the GI50 (CCRF-CEM leukemia) was 414 nM and the TGI (CCRF-CEM leukemia) was 45800 nM. The GI50 (SK-OV-3 ovarian) was 501 nM, the TGI (SK-OV-3 ovarian) was 8370 nM and the GI50 (RPMI-8226 leukemia) was 357 nM. For the same compound, the TGI (RPMI-8226 leukemia) was 12800 nM, the GI50 (HCT-116 colon) was 182 nM and the TGI (HCT-116 colon) was 980 nM. For the same compound, the GI50 (MDA-MB-231 breast) was 288 nM, the TGI (MDA-MB-231 breast) was 1050 nM and the GI50 (UO-31 renal) was 431 nM. For the same compound, the TGI (UO-31 renal) was 7820 nM, the GI50 (HS 578T breast) was 519 nM and the TGI (HS 578T breast) was 14600 nM. It also gave a GI50 (SNB-19 CNS) of 337 nM and a TGI (SNB-19 CNS) of 12100 nM.
